This note sets out measurements from ChEMBL document CHEMBL1157520, “Abietane diterpenoids from the bark of Cryptomeria fortunei” (2008).

What all share (format): functional
Assay [1] relates to HL-60. The assay is described as follows: Antitumor activity against human HL60 cells at 10^-4 mol/l by MTT assay. A general note: Tetrazolium dyes change colour on reduction, which living cells bring about.
For assay [2], the system named is HL-60. The assay is described as follows: Antitumor activity against human HL60 cells at 10^-5 mol/l by MTT assay.
Assay [3] concerns HL-60. Nature of the assay: Antitumor activity against human HL60 cells at 10^-6 mol/l by MTT assay.
Assay [4] deals with HL-60. The assay is described as follows: Antitumor activity against human HL60 cells at 10^-7 mol/l by MTT assay.
The subject of assay [5] is HL-60. The assay is described as follows: Antitumor activity against human HL60 cells at 10^-8 mol/l by MTT assay.
The test system of assay [6] is A549. Nature of the assay: Antitumor activity against human A549 cells at 10^-4 mol/l by SRB assay.
The subject of assay [7] is A549. Nature of the assay: Antitumor activity against human A549 cells at 10^-5 mol/l by SRB assay.
The subject of assay [8] is A549. Nature of the assay: Antitumor activity against human A549 cells at 10^-6 mol/l by SRB assay. In general terms: The SRB assay estimates cell density from bound dye.
The subject of assay [9] is A549. Nature of the assay: Antitumor activity against human A549 cells at 10^-7 mol/l by SRB assay.
For assay [10], the system named is A549. The assay is described as follows: Antitumor activity against human A549 cells at 10^-8 mol/l by SRB assay.

On to `COc1c(C(C)C)cc2c(c1O)[C@@]1(C)CCCC(C)(C)[C@@H]1[C@@H](O)[C@@H]2OC` [FORTUNIN C], for which the Activity was 58.5% in the assay with HL-60 [1]; 56.2% in the assay on HL-60 [2]; 14.4% in the assay on HL-60 [3]; 10.8% with HL-60 [4]; 9.3% with HL-60 [5].

As to `CC(C)c1cc2c(cc1O)[C@@]1(C)CCCC(C)(C)C1=C(O)C2=O`, the Activity is 55.4% in the assay with HL-60 [1]; 54.4% with HL-60 [2]; 11.9% with HL-60 [3]; 11.9% in the assay with HL-60 [4]; 8.3% in the assay on HL-60 [5].

Turning to `CC(C)c1cc2c(c(O)c1O)[C@@]1(C)CCCC(C)(C)C1=C(O)C2=O` [14-DEOXYCOLEON U], the Activity in the assay on HL-60 [1] is reported as 50.6%; in the assay with HL-60 [2], 53.6%; in the assay with HL-60 [3], 11.5%; with HL-60 [4], 13.9%; with HL-60 [5], 8.4%; in the assay with A549 [6], 50.6%. Moreover, the Activity turned out to be 53.6% in the assay with A549 [7], 11.5% in the assay on A549 [8], 13.9% in the assay on A549 [9] and 8.4% in the assay on A549 [10].
